As a reminder, the melting point is the temperature, or range, at which the solid turns liquid.

Our source for the melting point values is a melting point compilation (Tetko et al.; mined from patent text by program, amines drawn as free bases though some values may be those of a salt).

SMILES strings stand for the structures.

In the case of `COc1ccc2ccccc2c1-c1cc2c(c(-c3ccccc3)c1P(=O)(c1ccccc1)c1ccccc1)COC2`, the melting point is 129 to 131 °C.

In turn, `C=C(Cc1ccccc1)C(=O)N[C@@H](CC(C)C)C(=O)O` gave a melting point of 56 to 60 °C.

Compound `C=CCOc1ccc2ccc(O)cc2c1` came in with a melting point of 78 to 80 °C.

For `O=c1c2c(Cc3ccccc3)n[nH]c2c2cccnc2n1-c1ccc(O)cc1`, the melting point is more than 320 °C.

Compound `CCCc1nc(N)c(C(=O)OCC)[nH]1` came in with a melting point of 111 to 114 °C.

In turn, `COC(=O)c1ccc(OC(=O)c2ccccc2)cc1O` yielded a melting point of 103 °C.

The compound `CN(C)c1ccc(C(=N)Nc2cccc(NC(=O)C=Cc3ccccc3)c2)cc1` yielded a melting point of 225 to 227 °C.

Turning to `Cc1cccn2cc(CN3CCN(c4ccc(Cl)cc4)CC3)nc12`, the melting point fell in the range of 102 to 104 °C.

`CC(C)(C)OC(=O)c1cnc(F)cn1` came in with a melting point of 26.5 to 28.1 °C.

`Cc1ccc(OC2CCN(C(=O)C(=O)Nc3ccc4[nH]c(=O)oc4c3)CC2)cc1` registered a melting point of 203 °C.

On to `Cc1oc(C2(C)CCCCC2)nc1CC#N`, for which the melting point was 57 to 58 °C.

Compound `O=C(Nc1ccc2[nH]c(=O)oc2c1)C(=O)N1CCC(Oc2ccc(Cl)cc2)CC1` came in with a melting point of 242 to 244 °C.

Compound `O=C1NC(=O)C2(N1)C1CC3CC(C1)CC2C3` (centres undefined) showed a melting point of 290 to 293 °C.

In turn, `CS(=O)(=O)c1cc(CC(=O)O)cc2c1NC(C(F)(F)F)CC2` (centres undefined) had a melting point of 124 to 125 °C.

`NCc1nnc2n1-c1ccc(Cl)cc1C(c1ccccc1F)=CC2` showed a melting point of 188 to 190 °C.

`CC(=O)Nc1cc2c(c(C)c1C)OC(C)(C)C2` showed a melting point of 163 to 164 °C.

In turn, `C=CCOC(=O)c1c(C)nc2c(cnn2CCC#CC)c1N` came in with a melting point of 114 to 115 °C.

Compound `CCOC(=O)c1ncc2[nH]c3cccc(Oc4ncccn4)c3c2c1COC` returned a melting point of 96 to 98 °C.

The compound `COc1cc(C)nc(NC(=O)NS(=O)(=O)c2cccc3c2NC(C)C3)n1` (centres undefined) had a melting point of 175 to 177 °C.

In the case of `CCOC(=O)c1cnc2c(c(C)nn2-c2ccccn2)c1Cl`, the melting point lay in the range of 121 to 123 °C.

Consider `Oc1ccc(OCCN2CCN(c3ccccc3)CC2)cc1`, for which the melting point is 95 to 100 °C.

`CCn1c2ccccc2c2cc(/C=C(\C#N)c3cccnc3)ccc21`: the melting point fell in the range of 131 to 133 °C.

With `CC(C)n1c(=O)nc(-c2cnc3ccccc3c2)c2cc3c(cc21)OCO3`, the melting point lay within 279 to 281 °C.

In turn, `Cc1[nH]c2ccccc2c1CCCN1CCC(c2noc3cc(Cl)ccc23)CC1` registered a melting point of 108 to 110 °C.

In turn, `Cn1nc(-c2cccc(N3Cc4cc(C(C)(C)C)ccc4C3=O)c2CO)cc(Nc2ccccn2)c1=O` gave a melting point of 236 to 237 °C.

In turn, `CC(=O)Nc1ncc(C23CCCN(CC2)C3)o1` (centres undefined) displayed a melting point of 142 to 143 °C.

With `C/C(NCCCc1ccccc1)=C(\C#N)C(N)=S`, the melting point lay within 125 to 126 °C.

For `CC(C)=C1C(=O)N(c2ccc(O)cc2)C(=O)/C1=C(\C)c1c(C)n(C)c2ccccc12`, the melting point was 231 to 233 °C.

`FC(F)(F)c1ccc(-c2cc(C(F)(F)F)n3ncc(-c4ccncc4)c3n2)cc1C(F)(F)F` registered a melting point of 209 °C.

For the compound `COc1ccc2c(c1)C(=O)C(Cc1nccs1)CO2` (centres undefined), the melting point was in the range of 71 to 73 °C.

As to `CCCCCCCCCCCCCCCCCCc1ccc(S(=O)(=O)Nc2nncs2)cc1`, the melting point lay within 116 to 117 °C.

On to `CC(C)(C)OC(=O)CN1C(=O)[C@@H](NC(=O)OCc2ccccc2)[C@H]1CCc1ccco1`, for which the melting point lay in the range of 82 to 84 °C.

`CN1CCC(c2nc3ccccc3[nH]2)C1` (centres undefined) returned a melting point of 189 to 193 °C.

`CSc1nc(C)c(Cc2ccc(Cl)cc2)c(=O)[nH]1` returned a melting point of 248 to 251 °C.

In turn, `Cc1ccc(C)n1-c1ccc([C@@H](O)CN2C(=O)c3ccccc3C2=O)cn1` had a melting point of 167 to 170 °C.

The compound `Cc1oc(-c2ccccc2)nc1Cc1cc2cc(CCCC3OC(=O)NC3=O)ccc2o1` (centres undefined) yielded a melting point of 184 to 185 °C.

On to `COCc1cnc2c(NC(=O)c3c(Cl)cccc3Cl)cccc2c1-n1ccnc1`, for which the melting point is 145 to 150 °C.

The compound `O=c1c(OCC2CC2)cn(-c2cccc(C(F)(F)F)c2)nc1-c1ccnn1-c1ccccc1` came in with a melting point of 72 to 78 °C.

As to `CCOC(=O)c1cc(O)cc2nc(-c3ccc(O)cc3)oc12`, the melting point was 305 to 307 °C.

On to `C[C@@H](O)Cn1ncc2ccc(O)c(Br)c21`, for which the melting point was 134 to 136 °C.

Compound `O=S(=O)(NCc1ccc(Cl)cc1)c1cc(Cl)c2cccnc2c1O` displayed a melting point of 189 to 190 °C.

On to `O=C(Nc1ccc(-n2nc(C(F)(F)F)cc2C(F)(F)F)cc1)c1ccccc1Cl`, for which the melting point was in the range of 155 to 157 °C.

Turning to `CCC(CC)(CO)CCCS(=O)(=O)N=CN(C)C`, the melting point fell in the range of 87 to 88 °C.

Consider `CCCCCC(=O)c1ccc(O)c(C(=O)O)c1`, for which the melting point is 48 to 49 °C.

As to `CCOc1cc2ncc(C#N)c(Nc3cccc(F)c3)c2cc1OCC`, the melting point was in the range of 192 to 195 °C.

`Cn1nc(-c2ccc([N+](=O)[O-])cc2)c2ccccc2c1=O` returned a melting point of 200 to 202 °C.

For `Cc1cc(C)c(O)cn1`, the melting point lay in the range of 146 to 148 °C.

In turn, `COc1ccccc1N1CCN(CCn2c(=O)c3sccc3n(C)c2=O)CC1` yielded a melting point of 149 to 151 °C.

With `O=C(c1ccccc1)N1CCC(CSc2ccccc2)CC1`, the melting point fell in the range of 76 to 79 °C.

`COCCn1cc(C(=O)NCc2ccc(Cl)cc2)c(=O)c2cc(CN(C)C[C@@H](O)c3ccccc3)sc21` returned a melting point of 105 to 106 °C.

In the case of `COc1cc(C2C3=C(COC3=O)Nc3c2cc(OC)c(OC)c3OC)ccc1O` (centres undefined), the melting point lay in the range of 290 to 291 °C.

`Cc1onc(-c2ccccc2)c1-c1csc(N)n1` yielded a melting point of 223 to 224 °C.

`CC1(c2cn(-c3c(Cl)cc(C(F)(F)F)cc3Cl)nc2C#N)CC1` yielded a melting point of 138 to 139 °C.

Compound `C=C1SC(=S)N(c2cccc3c(-c4ccc(OC)c(C56CC7CC(CC(C7)C5)C6)c4)cccc23)C1=O` yielded a melting point of 322 to 324 °C.

`CCOC(=O)Nc1c(C(=O)OCC)oc2cc(OCc3ccccc3)ccc12` displayed a melting point of 100 °C.

`COc1ccccc1SC(CC(C)C)c1c(O)cc(-c2ccccc2)oc1=O` (centres undefined) gave a melting point of 75 to 78 °C.

The compound `CCCn1nc(C(C)C)c(C(=O)OCc2ccccc2C(=O)c2ccccc2)c1Cc1ccc(-c2ccccc2S(=O)(=O)NC(=O)OCC(C)C)c(F)c1` gave a melting point of 52 to 59 °C.

In turn, `COCc1nc(N)nc(N)c1-c1ccc(Cl)cc1Cl` had a melting point of 183 to 185 °C.

In turn, `CC(C)OC(=O)C(=O)Nc1cc(Cl)ccc1O` displayed a melting point of more than 300 °C.

`CCOC(=O)c1cc2ccc3oc4ccccc4c3c2n1C` had a melting point of 114 to 116 °C.

For `Cc1cccc(N2C(=S)SCC2(C)O)n1` (centres undefined), the melting point lay within 150 to 153 °C.

In turn, `CS(=O)(=O)c1ccc(-n2nc(C(F)(F)F)cc2-c2ccc(-c3cscn3)cc2)cc1` came in with a melting point of 168 to 170 °C.

Compound `O=C1Cc2ccc(C3CCCC3)cc2O1` returned a melting point of 42 to 43 °C.

The compound `CS(=O)(=O)CC(O)(Cn1cncn1)C(F)(F)C(F)(F)C(F)(F)C(F)(F)F` (centres undefined) registered a melting point of 106 to 109 °C.
